# Data reported in patent US8962646B2, “Peripherally acting opioid compounds” (Alkermes, Inc., priority 2011, dated 2015).
# Entries after “also recorded” stand apart in the source; their conditions may differ. Structures can show the parent of a compound that is named as a salt. Where two headings read alike, the source gives them in different places.
# Assays:
# [1] = target: human κ opioid receptor (Homo sapiens (Human), UniProt P41145); conditions: read-out: Binding affinity κ (Ki, nm)
# [2] = target: T1, human μ opioid receptor (Homo sapiens (Human), UniProt P35372); assay type: biochemical
# Description: The [^35S]GTPγS assay measures the functional properties of a compound by quantifying the level of G-protein activation following agonist binding in studies using stably transfected cells, and is considered to be a measure of the efficacy of a compound. Membranes from CHO (Chinese Hamster Ovary) cells that stably expressed the cloned human Mu opioid receptor were used in the experiments. In a final volume of 0.5 mL, 12 different concentrations of each test compound were incubated with 7.5 μg of CHO cell membranes that stably expressed the human μ opioid receptor. The assay buffer consisted of 50 mM Tris-HCl, pH 7.4, 3 mM MgCl2, 0.2 mM EGTA, 3 μM GDP, and 100 mM NaCl. The final concentration of [^35S]GTPγS was 0.080 nM. Nonspecific binding was measured by inclusion of 10 μM GTPγS. Binding was initiated by the addition of the membranes. After an incubation of 60 min at 30° C., the samples were filtered through Schleicher & Schuell No. 32 glass fiber filters. The filters were washed three times with cold 50 mM Tris-HCl, pH 7.5, and were counted in 2 mL of Ecoscint scintillation fluid.
# [3] = target: human δ opioid receptor (Homo sapiens (Human), UniProt P41143); assay: Receptor binding, competitive displacement of [3H]naltrindole; conditions: CHO cell membranes, cloned human receptor, 0.2 nM [3H]naltrindole
# [4] = tested on: mice; assay: In vivo behavioral studies (clinical observation assay); conditions: 10 mg/kg SC, observed over 24 hours
# Description: Groups of mice (n=5 per group; >60 days; 20-25 grams weight) were dosed with vehicle (0.9% sterile saline) or test compounds (10 mg/kg free base, SC) 30 minutes before the first observation period. The occurrence of Straub tail, piloerection, hyperlocomotion, hypolocomotion, circling of the cage, sedation, breathing abnormalities, diuresis, seizure activity and occurrences of death were recorded at 0.5, 1, 2, 4, 6 and 24 hours following dosing.
# This is tested with our clinical observation assay where mice are injected with 10 mg/kg subcutaneously with drug and the behaviors are noted over 24 hours.
# [5] = target: T1, human μ opioid receptor; conditions: read-out: Binding affinity μ (Ki, nm)
# [6] = tested on: hot plate response latency; assay: Rat hot plate model of centrally mediated analgesia
# Description: Rats were then tested on the hot plate 5, 30, 60, 120, 240 and 360 minutes later. The amount of time it took to lick one hind paw is measured and is considered the response latency. The mean and SEM of the responses latencies for each experimental group were calculated and a line depicting mean hot plate latency vs. time was generated using GraphPad Prism. An increase in mean response latency above baseline following test compound administration is indicative of an antinociceptive effect.
# [7] = tested on: CFA-induced weight bearing deficits; assay: CFA induced weight bearing deficits in rats; conditions: for Analgesic effect with concurrent intra-plantar 75 ug naloxone methiodide: 10 μg/paw intra-plantar; for Reversal of CFA-induced weight bearing deficits: intra-plantar, 3, 10 and 30 μg/paw
# Description: Animals were habituated to the weight bearing test apparatus for 2 days prior to the start of the experiment. On Day 0, rats were tested in the weight bearing apparatus to measure baseline weight bearing of untreated hind paws. Following baseline testing, animals were injected intra-plantar with Complete Freund's Adjuvant (CFA). Using a syringe with a locking hub and 25 G needle, rats were injected via rear, left intra-plantar administration with 100 μL of 100% CFA (1.0 mg/ml) while under light isofluorane anesthesia. No treatment was administered to the right, rear, contralateral paw.
# Intra-plantar test-compound administration was done while the animal was under light (3%) isofluorane anesthesia using 0.3 ml insulin syringe. The amount of anesthesia given to the animal during test compound administration was limited to a very short duration, so not to impede measurement of weight bearing at the 5 minute time point. On Day 1 (24 hrs post CFA), rats were tested in the weight bearing apparatus to measure CFA-induced changes in weight bearing. […] Following test compound administration, animals were retested in the weight bearing apparatus at the following time points: 5, 15, 30, 60 and 120 minutes post-test compound administration. Animals were retested on Day 2 (post-CFA) if there is a significant change in CFA induced weight bearing at the 120 minute time point on Day 1.
# [8] = tested on: formalin-induced events; assay: Formalin model of pain; assay type: in vivo; conditions: rats; for ED50: Rattus norvegicus, sc, read-out: Formalin test ED50
# Description: Nonfasted male Harlan rats were assigned to treatment group according to a randomized block study design to balance for test chamber and time of day, and day of test (if applicable). Each rat was administered either vehicle or test compound subcutaneously and then placed in their assigned test chamber and acclimated for 25-30 minutes with the chamber enclosure door left open. Data was not collected during this period. Following the acclimation period, each rat was removed individually starting with chamber 1, and dosed 5% formalin subcutaneously into the right rear paw plantar surface (formalin was made from a 37% stock solution, diluted down to 5% with saline).
# Data collection started when the first rat was replaced in chamber 1 and the chamber door was closed and latched (skipped 1-minute acclimation screen on software). The number of events (also defined as “number of seconds”), defined as the number of 1-second bins with a change in dynamic force that exceeded an empirically determined threshold value (a value of arbitrary load units, which corresponded visually with rats quietly breathing or sniffing), were totaled in 5-minute intervals. In control rats, the number of events first increases within 5 minutes and then decreases during the subsequent 5 minutes (a quiescent phase) after formalin administration (Phase I, or Early Phase, of the formalin test), then increases again during the subsequent 35 minutes (Phase II, or Late Phase) of the formalin test. Formalin-induced movements detected by the system include licking and flinching of the affected paw as well as hopping and turning.
# For constructing summaries for analysis of dose response curves or screens in the formalin test, the total number of events during the first 5 minutes after formalin administration was considered to be Phase I (Early Phase), and the total number of events for minutes 11 to 35 after formalin was considered to be Phase II (Late Phase). Data were analyzed using 1-way ANOVA, and comparisons of drug treatment groups were compared with control groups using appropriate, statistician-guided tests—most commonly Dunnett's for dose response curves and a Student's t-test for two-group (i.e. vehicle vs. positive control) comparison—utilizing JMP statistical software (SAS Institute Inc, Cary, N.C.). Data was expressed as means±SEM. An ED50 was calculated utilizing GraphPad Prism software.
# [9] = tested on: acetic acid induced writhing; assay: Acetic-acid induced writhing model of inflammatory pain; assay type: in vivo; conditions: mice, intraperitoneal, 1% acetic acid
# Description: The number of writhes was counted for 15 minutes (3 consecutive 5 minute time bins). […] “Normal” posture was defined as movements opposite to those listed above (e.g. convex curvature of the spine, legs not extended, abdomen not lowered, tail in a straight or relaxed position, etc).
# The total number of writhes over the 15 minute test session was used for all data analysis. All data was transformed using GraphPad Prism to % change from daily vehicle control for analysis based on the number of writhes produced by the saline vehicle control group (% change=# writhes in test group/mean # of writhes in daily vehicle control group*100).
# [10] = CHO cell membranes, cloned human receptor, 1 nM [3H]U69,593
# [11] = [35S]GTPγS binding, CHO membranes
# [12] = read-out: Binding affinity δ (Ki, nm)
# [13] = CHO cell membranes, cloned human receptor, […] [3H]DAMGO
# [14] = uM, read-out: Binding affinity δ (Ki)
Molecule,"Ki [1, 10] [nM]","In vitro functional agonism for μ receptor Agonist? [2, 11]","Ki [3, 12] [µM]",Clinical Observations after 10 mg/kg subcutaneous injection [4],"Ki [5, 13] [nM]",also measured
CN1CC[C@]23CC(=O)CC[C@@]2(O)[C@H]1Cc1ccc(C(=O)NCCc2ccc(-c4ccc(=O)[nH]c4)cc2)c(O)c13 [Compound 3],180,Yes,0.017,None,0.63,
"(4bS,9R)—N-(4-(2,4-dioxo-1,2,3,4-tetrahydropyrimidin-5-yl)phenethyl)-4-hydroxy-11-methyl-6-oxo-6,7,8,8a,9,10-hexahydro-5H-9,4b-(epiminoethano)phenanthrene-3-carboxamide [Compound 5]",,Yes,0.051,None,1.7,Ki [1]: 680 nM
CN1CC[C@]23CC(=O)CC[C@@]2(O)[C@H]1Cc1ccc(C(=O)NCCc2ccc(-c4cn[nH]c4)cc2)c(O)c13 [Compound 8],19,Yes,0.0021,None,0.15,
"CN1CC[C@]23CC(=O)CC[C@@]2(O)[C@H]1Cc1ccc(C(=O)NCCc2ccc(-c4cnc(=O)[nH]c4)cc2)c(O)c13 [Compound 11, 4,14-dihydroxy-17-methyl-6-oxo-N-{2-[4-(2-oxo-1,2-dihydropyrimidin-5-yl)phenyl]ethyl}morphinan-3-carboxamide maleate salt]",,Yes,,None,1.6,"Ki [3, 14]: > 1 µM"
"CN1CC[C@]23c4c5ccc(O)c4O[C@H]2[C@@H](O)C=CC3C1C5 (stereo partly shown) [A, morphine, reference compound]",,,,"Multiple central nervous system like effects: Straub tail, hyperlocomotion, circling",,"Hot plate antinociception (response latency) ([6]; SC 7.5 mg/kg, hot plate 52.5° C.): 60 s; Clinical Observations after 10 mg/kg subcutaneous injection ([4]; listed as morphine): severe effects that reflect mu agonism in the brain; Analgesic effect with concurrent intra-plantar 75 ug naloxone methiodide [7]: significantly inhibited; Reversal of CFA-induced weight bearing deficits [7]: dose-dependent reversal of CFA-induced weight bearing deficits; ED50 ([8]; subcutaneous): 2.4 mg/kg; Effect on early and late phase of formalin test ([8]; 10 mg/kg): completely mitigates both the early and late phase effects of formalin"
"CN1CC[C@]23CC(=O)CC[C@@]2(O)[C@H]1Cc1ccc(C(=O)NCCc2ccc(-c4ccccc4)cc2)c(O)c13.Cl [B, reference compound]",0.71,,0.0054,"Angioedema; Straub tail, hypolocomotion, mortality",,In vitro functional agonism for μ receptor Agonist? [2]: Yes; Clinical Observations after 10 mg/kg subcutaneous injection ([4]; listed as Compound-B): severe effects that reflect mu agonism in the brain; also recorded: observed mortality; Ki [5]: 0.39 nM
CN1CC[C@]23CC(=O)CCC2[C@H]1Cc1ccc(C(=O)NCCc2nc4ccccc4[nH]2)c(O)c13 (stereo partly shown) [Compound 9],400,Yes,0.28,None,1.7,
C=C1CC[C@@]2(O)[C@H]3Cc4ccc(C(=O)NCCc5ccc(-c6c[nH]c(=O)[nH]c6=O)cc5)c(O)c4[C@@]2(CCN3C)C1 [Compound 6],1000,Yes,0.097,None,3.5,
CN1CC[C@]23CC(=O)CC[C@@]2(O)[C@H]1Cc1ccc(C(=O)NCCc2ccc(-c4cnc(O)nc4O)cc2)c(O)c13 [Compound 4],,Yes,,None,1.3,"Hot plate efficacy at the highest dose tested ([6]; SC 100 mg/kg): sub-maximal efficacy; Hot plate activity compared with morphine ([6]; SC 10, 30 and 100 mg/kg): significantly less active than morphine; Ki [1]: 190 nM; Ki [3, 14]: > 1 µM; Analgesic effect with concurrent intra-plantar 75 ug naloxone methiodide [7]: significantly inhibited; Reversal of CFA-induced weight bearing deficits [7]: dose-dependent reversal of CFA-induced weight bearing deficits; also recorded: comparable to that seen with Morphine; ED50 ([8]; subcutaneous): 3.62 mg/kg; Early Phase versus Late Phase effect in formalin test ([8]; subcutaneous): more robust effect of Compound 4 in the Late Phase effects than the Early Phase; Effect on formalin-induced events ([8]; subcutaneous, dose response): dose-dependent reversal of formalin-induced events; ED50 ([9]; Mus musculus, ip): 0.7 mg/kg; Effect on acetic acid induced writhing [9]: blocked acetic acid induced writhing in a dose-dependent manner"
CN1CC[C@]23CC(=O)CC[C@@]2(O)[C@H]1Cc1ccc(C(=O)NCCc2nc4ccccc4[nH]2)c(O)c13 [Compound 1],850,,0.49,None,,In vitro functional agonism for μ receptor Agonist? [2]: Yes; Ki [5]: 27 nM
"O=C1CC[C@@]2(O)[C@H]3Cc4ccc(C(=O)NCCc5ccc(-c6c[nH]c(=O)[nH]c6=O)cc5)c(O)c4[C@@]2(CCN3CCc2ccccc2)C1 [Compound 2, N-{2-[4-(2,4-Dioxo-1,2,3,4-tetrahydropyrimidin-5-yl)phenyl]ethyl}-4,14-dihydroxy-6-oxo-17-(2-phenylethyl)morphinan-3-carboxamide]",,Yes,,None,,
"CN1CC[C@]23CC(=O)CC[C@@]2(O)[C@H]1Cc1ccc(C(=O)NCCc2ccc(-c4cc[nH]c(=O)c4)cc2)c(O)c13 [Compound 10, 4,14-dihydroxy-N-{2-[4-(2-hydroxypyridin-4-yl)phenyl]ethyl}-17-methyl-6-oxomorphinan-3-carboxamide]",,Yes,0.01,None,0.43,Ki [1]: 140 nM
CO[C@@]12CCC(=O)C[C@@]13CCN(C)[C@@H]2Cc1ccc(C(=O)NCCc2ccc(-c4c[nH]c(=O)[nH]c4=O)cc2)c(O)c13 [Compound 7],860,,0.042,None,,In vitro functional agonism for μ receptor Agonist? [2]: Yes; Ki [5]: 0.52 nM
